Consider five molecules from paper PMC13298843, “Substituent size versus metal binding of inhibitors with variants of influenza endonuclease^” (Journal of inorganic biochemistry, 2025).

The target in series [1] is WT enzyme (PAN endonuclease). Set-up: method as in PMID 31536340. As to conditions: FRET-based assay, cited from earlier work.
A further series relates to influenza. Conditions: oral monotherapy taken at time of diagnosis; cited from earlier work.
Series [2] is classed as physicochemical. Conditions: at 1000 μM in DSF buffer with 4 % DMSO.
Where [3] appears, read: read-out: pIC50 values (converted).
Where [4] appears, read: at edge of limit of detection, read-out: IC50 values.

Each structure is given as a SMILES string. Read-outs that look alike come from different tables or passages of the source.

Consider `CCc1ccccc1-c1cc(=O)c(O)c(C(=O)O)[nH]1` [Compound 2], for which the IC50 in series [1] (setting [3]) is less than 2 nM.

Take `COC(=O)OCOc1c2n(ccc1=O)N([C@@H]1c3ccccc3SCc3c1ccc(F)c3F)[C@@H]1COCCN1C2=O` [BXM, Baloxavir marboxil]: the “time to reduce fever (average)” value in the series on influenza is 24 h.

Consider `Cc1ccccc1-c1cc(=O)c(O)c(C(=O)O)[nH]1` [Compound 1], for which the IC50 in series [1] (setting [3]) is less than 2 nM.

Regarding `CSc1ccccc1-c1cc(=O)c(O)c(C(=O)O)[nH]1` [Compound 3], the IC50 in series [1] (setting [4]) is approximately 3 nM.

Take `O=C(O)c1[nH]c(-c2ccccc2Oc2ccccc2)cc(=O)c1O` [Compound 4]: the solubility result in series [2] was “poorly soluble”. For the same molecule, the IC50 in series [1] (setting [4]) was approximately 3 nM.
